Laboratory results published in patent US20100311133A1, “ELECTRODE, ENZYME SENSOR USING THE ELECTRODE, FUEL BATTERY, ELECTRONIC DEVICE, AND METHOD FOR DECOMPOSING POLYOL” (SONY CORPORATION, priority 2007, published 2010).

Legend:
Alcohol dehydrogenase = molecular target: T1, Alcohol dehydrogenase (Saccharomyces cerevisiae, UniProt P00330); experiment: Amount of NADH generated from polyol substrates by alcohol dehydrogenase (Example 3); assay type: biochemical, yeast; details: substrate 100 mmol/L; NAD+ 1.3 mg/mL; enzyme 2.5 μ/mL; 25° C.; relative to alcohol dehydrogenase with ethylene glycol = 100
T1 construct: purchased Wako Pure Chemical Industries, Ltd
T1 sequence (P00330 1-348): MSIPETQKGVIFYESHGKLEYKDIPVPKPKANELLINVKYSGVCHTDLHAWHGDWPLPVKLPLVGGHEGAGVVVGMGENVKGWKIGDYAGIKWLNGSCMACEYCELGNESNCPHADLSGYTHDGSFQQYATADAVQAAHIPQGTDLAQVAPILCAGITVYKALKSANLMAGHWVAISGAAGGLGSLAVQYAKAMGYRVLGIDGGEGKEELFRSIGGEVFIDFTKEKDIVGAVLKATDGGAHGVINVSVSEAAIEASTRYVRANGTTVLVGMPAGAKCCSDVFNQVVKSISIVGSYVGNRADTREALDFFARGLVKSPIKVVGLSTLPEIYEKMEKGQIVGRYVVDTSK
Source text: (§1) To be more specific, an alcohol dehydrogenase and an aldehyde reductase were allow to act with each substrate and the amount of NADH generated was comparatively investigated.
(§2) Individual relative values are indicated as relative values by assuming the amount of NADH generated from action of the alcohol dehydrogenase with ethylene glycol to be 100.

Aldehyde reductase = experiment: Amount of NADH generated from polyol substrates by aldehyde reductase (Example 3); assay type: biochemical, Candida; details: substrate 100 mmol/L; NAD+ 1.3 mg/mL; enzyme 2.5 μ/mL; 25° C.; relative to alcohol dehydrogenase with ethylene glycol = 100
Source text: as §1, §2

| SMILES | Amount of reduced coenzyme generated (relative value %), Alcohol dehydrogenase (Alcohol dehydrogenase) [%] | Amount of reduced coenzyme generated (relative value %), Aldehyde reductase (Aldehyde reductase) [%] |
| --- | --- | --- |
| OCCO [Ethylene glycol, ethylene glycol] | 100 | 4.0 |
| OC[C@@H](O)[C@@H](O)CO [Erythritol, erythritol] | 6.0 | 50 |
| OC[C@@H](O)[C@@H](O)[C@H](O)[C@@H](O)CO [Sorbitol, sorbitol] | 0.7 | 100 |
| OC[C@@H](O)[C@H](O)[C@@H](O)CO [Xylitol, xylitol] | 0.4 | 34 |
| OCC(O)CO [Glycerol, glycerol] | 0.6 | 7.0 |
